From paper PMC6273488, “Synthesis and Biological Evaluation of Benzochromenopyrimidinones as Cholinesterase Inhibitors and Potent Antioxidant, Non-Hepatotoxic Agents for Alzheimer’s Disease” (Molecules, 2016)
“Also recorded” adds a separate entry of the source.

Assays:
HepG2 cells = experiment: in vitro; format: cell-based; settings: HepG2, MTT, concentrations up to 1000 μM
Protocol: (§1) A prerequisite for any effective lead drug is to keep its cytotoxicity at the lowest possible level. In this regard, we submitted the four most promising compounds (3Ab, 3Bb, 3Cb and 3Ba) to an in vitro toxicologic evaluation (MTT assay) using human hepatocellular carcinoma cell line (HepG2) which represents a good probe to evaluate hepatotoxic effects. […].
(§2) HepG2 cells were purchased from American Type Culture Collection. The cells were cultured in Eagle’s Minimum Essential Medium (Ozyme, France) supplemented with 10% fetal bovine serum, 1X non-essential amino acids, 100 units/mL penicillin and […] streptomycin (Dutscher, Brumath, France). Cultures were kept under a CO2/air (5%/95%) humidified atmosphere at 37 °C. Prior to the experiment, cells were seeded in 96-well culture plates at a density of 0.1 × 10^6 cells per well. After 24 h of incubation, the culture medium was refreshed and 100 µL of the test compounds or DMSO (0.1%) were added. […] For the MTT assay, after 24 h of treatment, cells were incubated with 50 µL MTT (0.5 mg/mL, Sigma Aldrich, city, France) at 37 °C for 2 h. Plates were centrifuged, MTT was removed and 100 µL DMSO was distributed per well. The absorbance at 570 nm was measured using microplate reader (brand). Cell viability was expressed as percentage of cell viability compared to controls (DMSO, 0.1%).

in vitro [1] = format: cell-based; settings: human, HepG2 cells, 24 h, MTT, read-out: In vitro toxicity (% cell viability); for viability at 24 h, 1 µM: HepG2, 1 µM; for viability at 24 h, 3 µM: HepG2, 3 µM; for viability at 24 h, 10 µM: HepG2, 10 µM; for viability at 24 h, 30 µM: HepG2, 30 µM; for viability at 24 h, 100 µM: HepG2, 100 µM; for viability at 24 h, 300 µM: HepG2, 300 µM; for viability at 24 h, 1 mM: HepG2, 1 mM
Protocol: as §1, §2

in vitro [2] = settings: for Papp at 100 µM: PAMPA, pH 7.4; for BBB Penetration Estimation CNS (+/−): PAMPA-BBB class
Protocol: Penetration across the BBB is an essential property for compounds targeting the CNS. […] The filter membrane of the donor plate was coated with PBL (Polar Brain Lipid, Avanti, AL, USA) in dodecane (4 µL of 20 mg/mL PBL in dodecane) and the acceptor well was filled with 300 µL of PBS pH 7.4 buffer ([…]). Tested compounds were dissolved first in DMSO and that diluted with PBS pH 7.4 to reach the final concentration 100 µM in the donor well. […] 300 µL of the donor solution was added to the donor wells ([…]) and the donor filter plate was carefully put on the acceptor plate so that coated membrane was “in touch” with both donor solution and acceptor buffer. Test compound diffused from the donor well through the lipid membrane (Area = 0.28 cm^2) to the acceptor well. The concentration of the drug in both donor and the acceptor wells was assessed after 3, 4, 5 and 6 h of incubation in quadruplicate using the UV plate reader Synergy HT (Biotek, Winooski, VT, USA) at the maximum absorption wavelength of each compound.

[3] = molecular target: T1, horse serum BuChE (eqBuChE) (Equus caballus, UniProt P81908); experiment: Inhibition of eqBuChE (Ellman's assay); format: biochemical; settings: 10 µM compound
T1 construct: BuChE from horse serum (lyophilized powder, Sigma-Aldrich); purchased Sigma-Aldrich; host or cells: horse serum
T1 sequence (P81908 whole entry): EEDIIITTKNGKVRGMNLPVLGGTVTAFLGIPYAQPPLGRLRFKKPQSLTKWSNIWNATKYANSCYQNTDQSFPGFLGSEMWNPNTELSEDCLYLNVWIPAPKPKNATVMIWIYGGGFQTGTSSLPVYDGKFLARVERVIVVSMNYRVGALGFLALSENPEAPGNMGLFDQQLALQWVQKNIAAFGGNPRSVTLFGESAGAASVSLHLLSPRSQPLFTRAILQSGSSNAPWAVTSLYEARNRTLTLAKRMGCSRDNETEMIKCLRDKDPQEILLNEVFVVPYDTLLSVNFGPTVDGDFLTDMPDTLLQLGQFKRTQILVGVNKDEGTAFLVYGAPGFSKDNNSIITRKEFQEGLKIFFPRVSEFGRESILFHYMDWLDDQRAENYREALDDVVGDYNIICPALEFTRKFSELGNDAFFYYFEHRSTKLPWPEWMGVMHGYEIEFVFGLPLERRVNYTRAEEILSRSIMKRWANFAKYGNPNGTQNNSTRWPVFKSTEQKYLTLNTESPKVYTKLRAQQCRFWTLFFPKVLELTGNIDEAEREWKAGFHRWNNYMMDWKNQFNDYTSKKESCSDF
Protocol: For the preliminary screening of the inhibitory potencies, Electrophorus electricus AChE (EeAChE) and horse serum BuChE (eqBuChE) were used following the Ellman’s assay.
Assessment of the inhibitory power of BCPOs was performed following the spectrophotometric method of Ellman using purified AChE from Electrophorus electricus (Type V-S, Sigma-Aldrich) or BuChE from horse serum (lyophilized powder, Sigma-Aldrich). Enzymes were first dissolved in 0.1 M phosphate buffer (pH 8.0) and then aliquoted in small vials for easy handling. Compounds stock solutions in DMSO (10 mM) were diluted when necessary with DMSO to prepare appropriate dilutions of each compound. The assay was performed in a final volume of 3 mL of a 0.1 M phosphate-buffered solution at pH 8.0, containing 5,5′-dithiobis-2-nitrobenzoic acid (DTNB, 2625 µL, 0.35 mM, final concentration), EeAChE (29 µL, 0.035 U/mL final concentration) or eqBuChE (60 µL, 0.05 U/mL final concentration) tested compound (3 µL, different concentrations) and 1% (w/v) Bovine Albumin Serum phosphate-buffered (pH 8.0) solution (BSA, 40 µL). The inhibition in comparison to control without compound was determined by pre-incubating this blend at room temperature with each compound at nine different concentrations for 10 min. Then, acetylthiocholine iodide (105 µL, 0.35 mM, final concentration) or butyrylthiocholine iodide (150 µL, 0.5 mM final concentration) was added and incubated for another 15 min at rt. […] Calculation of IC50 values was performed with GraphPad Prism 5. Each concentration was measured in triplicate. Data are expressed as mean ± SEM.

[4] = molecular target: T2, human recombinant AChE (hAChE) (Homo sapiens, UniProt P22303); experiment: Kinetic characterization of hAChE inhibition (Lineweaver-Burk); format: biochemical
T2 construct: purchased Sigma-Aldrich
T2 sequence (P22303 32-614): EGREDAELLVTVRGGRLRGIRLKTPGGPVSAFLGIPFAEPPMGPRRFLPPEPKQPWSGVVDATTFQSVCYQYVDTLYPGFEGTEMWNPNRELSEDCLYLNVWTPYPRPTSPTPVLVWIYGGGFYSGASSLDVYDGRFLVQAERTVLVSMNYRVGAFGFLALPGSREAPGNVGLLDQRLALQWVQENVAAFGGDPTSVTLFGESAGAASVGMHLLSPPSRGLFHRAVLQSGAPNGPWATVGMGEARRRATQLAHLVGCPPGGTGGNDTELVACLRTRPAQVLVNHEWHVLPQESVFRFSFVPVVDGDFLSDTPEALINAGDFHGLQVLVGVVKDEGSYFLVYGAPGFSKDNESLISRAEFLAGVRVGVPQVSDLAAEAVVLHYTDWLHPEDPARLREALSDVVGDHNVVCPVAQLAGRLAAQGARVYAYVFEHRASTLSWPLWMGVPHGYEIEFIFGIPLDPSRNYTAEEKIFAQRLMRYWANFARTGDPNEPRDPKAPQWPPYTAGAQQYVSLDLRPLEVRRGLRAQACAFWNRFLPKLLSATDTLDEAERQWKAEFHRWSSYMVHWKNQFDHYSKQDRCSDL
Protocol: To get insight into the mode of inhibition, the kinetic mechanism of hAChE inhibition by compound 3Bb was investigated through classical Lineweaver-Burk double reciprocal plots.
To estimate the type of inhibition of hAChE, we performed the same experimental protocol as reported for hAChE inhibition. […]. The stock solution of ATC (0.5 mM in a well) was prepared in demineralized water and diluted before use to obtain 0.4, 0.3, 0.2, 0.1 and 0.067 mM substrate solutions. The double reciprocal plots were analysed by a weighted least square procedure that assumed the variance of V to be constant. Each experiment was performed in triplicate. To confirm the mode of inhibition, Cornish-Bowden plots were obtained by plotting S/V (substrate/velocity ratio) versus the inhibitor concentration. Data analysis was performed with GraphPad Prism 5. Inhibition constant (Ki) values were determined by re-plotting slopes from the Lineweaver-Burk plot versus the inhibitor concentration where Ki was determined as the intersect of the line with the x-axis.

[5] = Solubility in DMSO (footnote remark); format: physicochemical; settings: DMSO at 10 mM and 1 mM

| SMILES | hepatotoxicity on HepG2 cells (in words) (HepG2 cells) | viability at 24 h, 1 µM (in vitro [1]) [%] | viability at 24 h, 3 µM (in vitro [1]) [%] | viability at 24 h, 10 µM (in vitro [1]) [%] | viability at 24 h, 30 µM (in vitro [1]) [%] | viability at 24 h, 100 µM (in vitro [1]) [%] | viability at 24 h, 300 µM (in vitro [1]) [%] | viability at 24 h, 1 mM (in vitro [1]) [%] | Papp at 100 µM (in vitro [2]) [×10⁻⁶ cm/s] | BBB Penetration Estimation CNS (+/−) (in vitro [2]) | inhibition at 10 µM [3] [%] | mode of hAChE inhibition ([4]; Lineweaver-Burk double reciprocal plot) | Ki ([4]; estimated from Lineweaver-Burk replots, read-out: Ki (dissociation constant for the enzyme-inhibitor complex)) [nM] | solubility in DMSO (in words) [5] |
| --- | --- | --- | --- | --- | --- | --- | --- | --- | --- | --- | --- | --- | --- | --- |
| O=c1c2c(nc3n1CCCC3)Oc1ccc3ccccc3c1C2c1ccccc1 (stereo not drawn) [3Ab, 15-Phenyl-10,11,12,15-tetrahydro-9H-benzo[5,6]chromeno[2,3-d]pyrido[1,2-a]pyrimidin-14-one] | non-hepatotoxic | 99.3 ± 4 | 95.3 ± 2.3 | 98.5 ± 2.5 | 91.5 ± 4.5 | 101 ± 3.1 | 110 ± 5.5 | 110 ± 4.4 | 7.2 ± 0.6 | CNS (+) (‘CNS (+)’ (high BBB permeability predicted); Pe (10^−6 cm·s^−1) > 4.0) | 31.2 ± 1.8 |  |  |  |
| COc1cccc(C2c3c(nc4n(c3=O)CCC4)Oc3ccc4ccccc4c32)c1 (stereo not drawn) [3Ba, 14-(3′Methoxyphenyl)-10,11-dihydro-14H-benzo[5,6]chromeno[2,3-d]pyrrolo[1,2-a]pyrimidin-13(9H)-one] | non-hepatotoxic | 109 ± 2 | 108 ± 4.8 | 106 ± 3.5 | 99.2 ± 4.2 | 97 ± 5.4 | 108 ± 2.8 | 120 ± 6.8 | 4.6 ± 0.77 | CNS (+) (‘CNS (+)’ (high BBB permeability predicted); Pe (10^−6 cm·s^−1) > 4.0) | 51 ± 4 |  |  |  |
| COc1cccc(C2c3c(nc4n(c3=O)CCCC4)Oc3ccc4ccccc4c32)c1 (stereo not drawn) [3Bb, 15-(3′-Methoxyphenyl)-10,11,12,15-tetrahydro-9H-benzo[5,6]chromeno[2,3-d]pyrido[1,2-a]pyrimidin-14-one] | non-hepatotoxic | 108 ± 2.4 | 111 ± 8.7 | 105 ± 4.2 | 104 ± 5 | 112 ± 2.3 | 118 ± 7.3 | 128 ± 5 | 3.6 ± 0.57 | CNS (+/−) (‘CNS (+/−) (BBB permeability uncertain); Pe (10^−6 cm·s^−1) from 4.0 to 2.0) | 43 ± 1.9 | mixed-type inhibition; also recorded: mixed-type hAChE inhibitor | 380 |  |
| Cc1ccc(C2c3c(nc4n(c3=O)CCCC4)Oc3ccc4ccccc4c32)cc1 (stereo not drawn) [3Cb, 15-(4′-Methylphenyl)-10,11,12,15-tetrahydro-9H-benzo[5,6]chromeno[2,3-d]pyrido[1,2-a]pyrimidin-14-one] | non-hepatotoxic | 106 ± 7 | 103 ± 10.8 | 110 ± 9.1 | 113 ± 5.8 | 103 ± 5.7 | 113 ± 5.2 | 110 ± 8 |  |  | 19 ± 2 |  |  | poor solubility in DMSO at 10 mM and 1 mM |
